Structures can show the parent of a compound that is named as a salt.
Columns and labels:
[1] = target: T1, human serum carnosinase (hCN1) (Homo sapiens, UniProt Q96KN2); assay: Inhibition effect of CHP on serum carnosinase (carnosine hydrolysis in serum); type: biochemical; settings: serum incubated with equimolar carnosine and CHP; decrease not statistically significant
T1 construct: from tissue; host or cells: serum
T1 sequence (Q96KN2 26-507): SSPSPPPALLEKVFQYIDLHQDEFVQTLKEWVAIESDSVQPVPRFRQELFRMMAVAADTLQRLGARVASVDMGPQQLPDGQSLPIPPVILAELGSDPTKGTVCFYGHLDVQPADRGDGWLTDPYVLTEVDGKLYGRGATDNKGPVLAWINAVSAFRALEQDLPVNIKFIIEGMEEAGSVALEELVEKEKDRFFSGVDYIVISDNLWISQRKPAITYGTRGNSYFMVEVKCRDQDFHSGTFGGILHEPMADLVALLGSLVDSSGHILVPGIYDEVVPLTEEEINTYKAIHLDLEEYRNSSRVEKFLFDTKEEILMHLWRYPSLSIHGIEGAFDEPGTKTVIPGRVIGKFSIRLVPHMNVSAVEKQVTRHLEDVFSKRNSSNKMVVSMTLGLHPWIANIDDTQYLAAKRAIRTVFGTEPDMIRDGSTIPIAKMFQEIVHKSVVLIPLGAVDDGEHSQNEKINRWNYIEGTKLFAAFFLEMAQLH
Experimental: (§1) Serum stability was measured as previously described. Briefly, analytes were spiked separately in pre-heated (37 °C) serum aliquots down to a final concentration of 5 µM. The residual concentration of analyte was measured at the beginning and after 5, 15, 30, 60 and 120 min by means of LC-MS. Prior to analyses, hydrolysis was blocked at the desired time points diluting with 9 volumes of acetonitrile at 4 °C to provide protein precipitation. The analyte residual concentration was then measured in the supernatants obtained upon centrifugation. The same method was also used to evaluate the inhibition effect of CHP by incubating serum samples with equimolar amounts of carnosine and CHP.

[2] = Serum stability (LC-MS, MRM); type: in vitro ADME, human; settings: 37 °C; for half-life at 5 µM: human, read-out: Serum Stability t1/2
Experimental: as §1

[3] = Quenching activity towards HNE (residual HNE by HPLC-UV); settings: for HNE Quenching (%) 1 h: percentage of quenched HNE at 1 h; for HNE Quenching (%) 2 h: percentage of quenched HNE at 2 h; for HNE Quenching (%) 3 h: percentage of quenched HNE at 3 h
Experimental: The reactivity towards HNE was tested for each peptide separately, by monitoring within 3 h from the incubation the residual HNE via HPLC-UV, as previously reported. Minor modifications of the method were implemented. A Kinetex C18 column (25 mm × 2.10 mm, particle size 2.6 µm, pore size 100 Å, Phenomenex, Castel Maggiore, Italy) was used instead and the elution of residual HNE was provided at 40 °C by 300 µL/min flow rate of aqueous ammonium acetate (10 mM) containing 20% acetonitrile. For active compounds, the formation of HNE adduct was confirmed by mass spectrometry. Samples were diluted in ACN/H2O/formic acid, 50/50/0.1, v/v/v solution down to a suitable concentration and pumped at 5 µL/min directly into ESI capillary (Finnigan Ion Max, Thermo Fisher Scientific, Rodano, Italy) and 3.5 kV voltage, 270 °C capillary temperature, 35 V capillary voltage and 50 V tube lens were applied to ensure sample nebulization. Spectra were acquired in positive ion mode for 5 × 10^5 ions per scan, by using a LTQ-Orbitrap XL-ETD analyzer (Thermo Fisher Scientific, Rodano, Italy) operating in a 150–700 m/z scan range at a resolution of (FWHM at m/z 400).

[4] = design: method as in PMID 1424308; settings: cited from earlier work

SMILES	retained carnosine hydrolytic activity [1] [%]	Serum Stability t1/2 (min) ([2]; 5 µM)	HNE Quenching (%) 1 h [3] [%]	HNE Quenching (%) 2 h [3] [%]	HNE Quenching (%) 3 h [3] [%]	half-life at 5 µM [2] [min]	half-life in vivo [4] [min]
O=C1NC(Cc2cnc[nH]2)C(=O)N2CCCC12 (centres unmarked) [CHP, Cyclo(His-Pro)]	85 ± 5	Stable	2.42 ± 0.71	5.46 ± 0.78	8.09 ± 0.77		
NC(Cc1cnc[nH]1)C(=O)N1CCCC1C(=O)O (centres unmarked) [HisPro, His-Pro]			−0.33 ± 0.45	−0.26 ± 0.53	3.54 ± 1.66	3.08	
NCCC(=O)N[C@@H](Cc1cnc[nH]1)C(=O)O [L-carnosine, reference compound]			17.04 ± 6.17	29.05 ± 4.33	40.40 ±3.73	1.17	
O=C(O)C(Cc1c[nH]cn1)NC(=O)C1CCCN1 [ProHis, L-Pro-L-His-OH dihydrochloride]			20.39 ± 1.14	36.94 ± 0.80	49.87 ± 1.06	33.4	
NC(=O)C(Cc1c[nH]cn1)NC(=O)C1CCCN1 [ProHis-NH2, L-Pro-L-His-NH2]			17.08 ± 1.11	27.66 ± 0.58	36.29 ± 1.08	128	
NC(=O)[C@@H]1CCCN1C(=O)[C@H](Cc1cnc[nH]1)NC(=O)[C@@H]1CCC(=O)N1 [TRH, thyrotropin-releasing hormone, reference compound]			2.31 ± 6.72	4.16 ± 6.16	6.17 ± 6.41	24.4	6.5

— PMC9103439, “Cyclo(His-Pro) Exerts Protective Carbonyl Quenching Effects through Its Open Histidine Containing Dipeptides” (Nutrients, 2022)
